Measurements: patent US20240425529A1, “BORIC ACID DERIVATIVE” (SHOUYAO HOLDINGS (BEIJING) CO., LTD., priority 2021, published 2024)
pIC50: −log10 of the molar value.

Assays:
[1] = Animal pharmacokinetic study in rats, single gavage; type: in vivo; conditions: rat, po; male rats, single gavage 5 mg/kg, plasma
Method: Three healthy adult male rats from Beijing Vital River Experimental animal Technology Co. Ltd were used for animal pharmacokinetic experiments. The compounds were suspended in 20% sulfobutyl ether-β-cyclodextrin (W/W/V) at a concentration of 1 mg/mL at a dosing volume of 5 mL/kg by single gavage at a dose of 5 mg/kg. Animals were fasted overnight before the experiment, from 10 hours before the administration to 4 hours after the administration. Blood was collected at 0.25, 0.5, 1, 2, 4, 6, 8, and 24 hours after the administration. The animals were anesthetized with isoflurane. About 0.4 mL of whole blood was collected from the orbital venous plexus using a glass blood collection tube and placed in a heparin anticoagulant tube. The sample was centrifuged at 4200 rpm for 5 min at 4° C. The plasma was transferred to a centrifuge tube and stored at −80° C. for later analysis. The plasma sample analysis used the acetonitrile protein precipitation method to extract the compound to be tested and internal standard (Warfarin or Propranolol) from rat plasma, and the extraction solution was analyzed by LC/MS/MS. The plasma concentration-time data of individual animals measured were analyzed using anon-compartmental model using the WinNonlin (version 5.2.1; Pharsight company) software, and the following pharmacokinetic parameters were obtained: maximum (peak) plasma drug concentration Cmax; Time to max Tmax; the area under the curve AUC0-inf of blood drug concentration-time from half-life T½ and extrapolation to infinite time.

LMP7 [2] = target: T1, LMP7 (Homo sapiens, UniProt P28062); experiment: Enzymatic inhibitory activity on LMP7 (MOLT-4 cell lysate, Ac-ANW-AMC substrate); type: biochemical; conditions: 1 hour pre-incubation
T1 construct: using MOLT-4 cell lysate as the enzyme source of LMP7; endogenous in cells; host or cells: MOLT-4 (human acute lymphoblastic leukemia cells)
Method in brief: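 Enzyme source was MOLT-4 cell lysate (20 ng/μl final) in 20 mM Tris pH 8.0, 0.5 mM EDTA, preincubated 1 h at 23 °C with compound at 9 final concentrations (0–2000 nM). Ac-ANW-AMC ([…]) was then added, 2 h at 23 °C in the dark. AMC fluorescence (ex 345/em 445 nm) gave the IC50.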

LMP7 [3] = target: T1, LMP7; experiment: Cytological inhibitory activity on LMP7 in MOLT-4 cells; type: cell-based; conditions: incubation for 2 hours with compound, read-out: Cytological activity data LMP7 Activity (MOLT-4Cell)
Method in brief: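 MOLT-4 cells pre-incubated 2 h with compound (8 concentrations, 5-fold dilution series from 2 mM DMSO stock, 5% FBS), washed and lysed. Lysate (20 ng/μl, 2× stock) reacted with Ac-ANW-AMC (100 μM, 2× stock) in 20 mM Tris pH 8.0, 0.5 mM EDTA, 1 h, 23 °C. Fluorescence at 345/445 nm; IC50 fitted.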

β5 = target: T2, β5 (Homo sapiens, UniProt P28074); experiment: Enzymatic inhibitory activity on β5 (HEK-293 cell lysate, Ac-WLA-AMC substrate); type: biochemical; conditions: 1 hour pre-incubation
T2 construct: using HEK-293 cell lysate as the enzyme source of D5; endogenous in cells; host or cells: HEK-293 (human embryonic kidney cells)
Method in brief: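 HEK-293 lysate (25 ng/μl final) preincubated 1 h at 23 °C with compound (9-point, 5-fold dilutions) in 20 mM Tris pH 8.0, 0.5 mM EDTA. Ac-WLA-AMC then added at 20 μM final for 2 h at 23 °C in the dark. AMC fluorescence read at Ex 345/Em 445 nm; IC50 from curve fit.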

AUC(0-inf) [1] [ng·h/mL] | Cmax [1] [ng/mL] | Tmax [1] [h] | half-life [1] [h] | pIC50 (LMP7 [2]) | pIC50 (LMP7 [3]) | pIC50 (β5) | Compound
108000 | 7710 | 0.42 | 14.4 | – | – | – | O=C(Nc1nccs1)C(=O)N[C@@H](Cc1coc2ccccc12)B(O)O [Ex. 25, (R)-(2-(benzofuran-3-yl)-1-(2-oxo-2-(thiazol-2-ylamino)acetamido)ethyl) boronic acid]
20900 | 3800 | 1.17 | 4.2 | 7.81 | – | – | O=C(N[C@@H](Cc1coc2ccccc12)B(O)O)C(=O)N1CCOCC1 [Ex. 5, (R)-(2-(benzofuran-3-yl)-1-(2-morpholino-2-oxoacetamido)ethyl)boronic acid]
– | – | – | – | 8.42 | 8.42 | 7.65 | O=C(Nc1cccc2c1OCC2)C(=O)N[C@@H](Cc1coc2ccccc12)B(O)O [Ex. 28, (R)-(2-(benzofuran-3-yl)-1-(2-oxo-2-((2,3-dihydrobenzofuran-7-yl)amino)acetamido)ethyl)boronic acid]
– | – | – | – | 8.22 | 8.10 | 6.45 | CN(C)c1ccnc(NC(=O)C(=O)N[C@@H](Cc2coc3ccccc23)B(O)O)c1 [Ex. 50, (R)-(2-(benzofuran-3-yl)-1-(2-oxo-2-((4-dimethylaminopyridin-2-yl)amino)acetamido)ethyl)boronic acid]
– | – | – | – | 8.54 | 8.46 | 7.54 | O=C(Nc1cccnc1)C(=O)N[C@@H](Cc1coc2ccccc12)B(O)O [Ex. 21, (R)-(2-(benzofuran-3-yl)-1-(2-(pyridin-3-yl)amino-2-oxoacetamido)ethyl) boronic acid]
– | – | – | – | 8.12 | 8.23 | 6.81 | O=C(N[C@@H](Cc1coc2ccccc12)B(O)O)C(=O)N[C@@H]1C[C@H]2CC[C@@H]1O2 [Ex. 1, ((R)-1-(2-(((1S,2R,4R)-7-oxabicyclo[2.2.1]heptan-2-yl)amino)-2-oxoacetamido)-2-(benzofuran-3-yl)ethyl)boronic acid]
– | – | – | – | 8.79 | 8.31 | 7.49 | CC1(C)[C@@H]2C[C@H]3OB([C@H](Cc4coc5ccccc45)NC(=O)C(=O)Nc4ccccc4F)O[C@@]3(C)[C@H]1C2 [Ex. 52, (R)-(2-(benzofuran-3-yl)-1-(2-oxo-2-(2-fluorophenylamino)acetamido)ethyl) boronic acid (1S,2S,3R,5S)-(+)-pinane-2,3-diol ester]
– | – | – | – | 8.23 | 8.45 | 6.41 | O=C(N[C@@H](Cc1coc2ccccc12)B(O)O)C(=O)N1C2CCC1COC2 [Ex. 39, (R)-(2-(benzofuran-3-yl)-1-(2-oxo-2-(3-oxa-8-azabicyclo[3.2.1]octan-8-yl)acetamido)ethyl)boronic acid]
– | – | – | – | 8.13 | 8.19 | 7.05 | O=C(N[C@@H](Cc1coc2ccccc12)B(O)O)C(=O)N1CCCC(F)(F)C1 [Ex. 56, (R)-(2-(benzofuran-3-yl)-1-(2-oxo-2-(3,3-difluoropiperidin-1-yl)acetamido)ethyl)boronic acid]
– | – | – | – | 8.31 | 7.80 | 7.27 | O=C(N[C@@H]1CCOC1)C(=O)N[C@@H](Cc1coc2ccccc12)B(O)O [Ex. 44, ((R)-2-(benzofuran-3-yl)-1-(2-oxo-2(((R)-tetrahydrofuran-3-yl)amino)acetamido)ethyl) boronic acid]
– | – | – | – | 8.51 | 8.63 | 7.36 | O=C(Nc1cnc2ccccc2n1)C(=O)N[C@@H](Cc1coc2ccccc12)B(O)O [Ex. 47, (R)-(2-(benzofuran-3-yl)-1-(2-oxo-2-(quinoxalin-2-ylamino)acetamido)ethyl) boronic acid]
– | – | – | – | 8.51 | 8.41 | 7.13 | CC1(C)[C@@H]2C[C@H]3OB([C@H](Cc4coc5ccccc45)NC(=O)C(=O)N[C@@H]4C[C@H]5CC[C@@H]4O5)O[C@@]3(C)[C@H]1C2 [Ex. 51, ((R)-1-(2-(((1S,2R,4R)-7-oxabicyclo[2.2.1]heptan-2-yl)amino)-2-oxoacetamido)-2-(benzofuran-3-yl)ethyl)boronic acid (1S,2S,3R,5S)-(+)-pinane-2,3-diol ester]
